Reference: patent publication US8017313B2, “Human G protein-coupled receptor and modulators thereof for the treatment of cardiovascular disorders” (Arena Pharmaceuticals, Inc., priority 2003, dated 2011)

System: RUP40 transcript in neonatal rat ventricular myocytes (NRVMs)
Experiment: RT-PCR of RUP40 transcript in neonatal rat ventricular myocytes
Format: cell-based
Details: 24 hours following addition to media, FIG. 4
Protocol: Neonatal rat ventricular myocytes (NRVMs) were isolated and cultured as described previously [Adams, J W et al., J Biol Chem (1996) 271:1179-86]. Briefly, hearts were obtained from 1- to 2-day old Sprague-Dawley rat pups and digested with collagenase, and myocytes were purified by passage through a Percoll gradient. Cells were plated onto tissue culture dishes precoated with 1% gelatin and maintained overnight in 4:1 DMEM/medium-199 supplemented with 10% horse serum, 5% fetal calf serum, and antibiotics (100 units/ml penicillin and 100 μg/ml streptomycin. After 18 hours in plating medium, myocytes were washed with maintenance medium (DMEM/medium 199 plus antibiotics) to remove dead cells and debris and refreshed with maintenance medium for the duration of the experiment.
Total RNA isolated from NRVMs and fibroblasts as described above was used as a template for generation of reverse transcribed DNA (RT-DNA) using the RT for PCR kit (Becton Dickinson, Franldin, N.J.) according to manufacturer's instructions. RUP40 expression was detected in RT-DNA samples by PCR. PCR conditions were: 96° C. or 2 min; 30 cycles of 96° C. for 30 sec, 55° C. for 30 sec, 72° C. for 2 min; 72° C. for 10 min.
The amplified rat RUP40 DNA product is of size 403 base pairs. G3PDH amplifiers (Becton Dickinson, Franldin, N.J.) were added to each PCR reaction as an internal control.

| Molecule | RUP40 transcript levels in the myocytes |
| --- | --- |
| CCCCCCCCCCCCCC(=O)O[C@@H]1[C@@H](C)[C@@]2(O)[C@@H](C=C(CO)C[C@]3(O)C(=O)C(C)=C[C@@H]23)[C@@H]2C(C)(C)[C@]12OC(C)=O [PMA, phorbol 12-myristate 13-acetate] | drop dramatically |
| CNC[C@H](O)c1cccc(O)c1 [PE, phenylephrine] | remain elevated |
| prostaglandin F2 alpha [PG] | remain elevated |
